Laboratory results taken from PMC9032346, “Identification of functionally important domains of human cytomegalovirus gO that act after trimer binding to receptors” (PLoS Pathogens, 2022).

Columns and labels:
rabbits = assay: Immunization of rabbits with ova-conjugated peptides; format: in vivo, New Zealand White rabbit; details: peptides conjugated onto ovalbumin, sera after 3 rounds of immunization
Text: An overlapping peptide library spanning the entire length HCMV gO polypeptide from strain TR was obtained from Genscript Biotech, Piscataway, NJ. The peptides consisted of 20 amino acids in length with 7 amino acid overlap and a biotin moiety conjugated to the C-terminus. A panel of 8 a.a. peptides overlapping by 7 a.a. and a biotin moiety conjugated to the C-terminus that were derived from the protein sequences: 248-[…]-267 or 326-[…]-345 (S2 Table) were also obtained from Genscript Biotech. Peptides derived from the gO polypeptide sequence 235-[…]-267 (peptide 19/20 from overlapping library) and 326-[…]-345 (peptide 26 from overlapping library) were synthesized conjugated onto ovalbumin (ova). These ova-peptides were used to produce New Zealand White rabbit polyclonal sera by priming rabbits with ova-peptides in Freund’s adjuvant then boosting the rabbits with ova-peptides in TiterMax Gold adjuvant (Sigma, St. Louis, MO). Rabbit antibodies specific for peptide 20, 26 and ovalbumin were purified using peptides ova-20 and ova-26 or ova (without peptides) by coupling these proteins to AminoLink (Thermo Scientific).

[1] = tested on: Abs present in HCMV seropositive human serum; assay: ELISA of biotinylated gO peptides with pooled human transplant sera; format: binding; details: biotin peptides 0.5 mM on streptavidin plates, pool of 5 sera diluted to NT100
Method: Fig 5 gO peptides recognized by Abs present in HCMV seropositive human serum. The panel of gO peptides with C-terminal biotin tags were incubated in the wells of streptavidin-coated ELISA plates. The wells were washed and then incubated with a pool of 5 different human sera from transplant patients that had been diluted to the NT100 titers. The plates were washed and incubated with goat-anti human-IgG-HRP for 1 h at room temperature, washed, and incubated with Turbo-TMB substrate. Control conditions included no peptide plus human sera (red bar) and wells coated with soluble trimer (instead of peptides) and human sera (green bar). The absorbance values are indicated on the y-axis and the numbers of the individual gO peptides are indicated on the x-axis.
For cell-based ELISA assays, ARPE-19 epithelial or fibroblast cells in 96-well plates were fixed with 4% paraformaldehyde, washed with PBS supplemented with 0.1M glycine pH.7.2, then washed with PBS plus 2% BSA and incubated with soluble trimers or gH/gL complexes at 10 μg/ml (or 20 μg/ml in the case of gO-417) in PBS with 2% BSA at room temperature for 1 h. […] The colorometric reaction was stopped by adding 100 μl of 1M sulfuric acid to the wells and then the substrate development was read in a Molecular Dynamics precision plate reader at a wavelength of 450 nm.

[2] = tested on: neutralizing Abs from human serum; assay: Depletion of neutralizing Abs from human sera, read out by HCMV neutralization on ARPE-19; format: cell-based
Method: Fig 7 gO peptides 20 and 26 deplete neutralizing Abs from human serum. (A) Pooled HCMV seropositive serum was diluted to (NT100) titers then incubated with either no protein, 1μg of soluble trimer, or gO peptides (with biotin): 20, 26, 32 or 33 (each at 0.5 mM) for 1 h at 37°C. […] The trimer was removed using nickel-agarose and peptides removed using streptavidin-agarose. The remaining Abs were tested in neutralization assays involving HCMV (BADrUL131) and ARPE-19 epithelial cells. The relative infectivity of HCMV after incubation with these sera was determined by counting GFP+ (infected) cells after 24 h of infection and compared to the numbers of infected cells following incubation of HCMV with similarly diluted sera from HCMV seronegative donors (sero-neg) Data was collected from three separate wells for each condition. (B and C) Two panels of 8 a.a. peptides with 7 a.a. overlap were derived from peptide 20 (B) or peptide 26 (C). These peptides were tested in depletion assays as in panel A. The relative infectivity of HCMV (BADrUL131) on ARPE-19 epithelial cells was determined and normalized to the level of HCMV infectivity with depletions performed with soluble trimer. Data was collected from a randomly selected field of the same surface area from each well.
These sera were then tested in HCMV neutralization assays as described above.

| Sequence | induction of gO-specific NAbs in rabbits (rabbits) | binding of IgG from human transplant sera [1] | HCMV infectivity with sera after depletion ([2]; pooled human transplant sera at NT100, 1 μg soluble trimer or 0.5 mM biotin peptide, 1 h 37°C, relative to seronegative sera, three wells) [%] | depletion of NAbs from human sera ([2]; pooled sera at NT100, 0.5 mM biotin peptide) |
| --- | --- | --- | --- | --- |
| FRVPKYINGTKLKNTMRKLKRKQAPVKEQSEKK [Peptide 19/20, peptide containing all of peptides 19 and 20 (a.a. 235-267), conjugated onto ovalbumin] | able to induce gO-specific NAbs | – | – | – |
| LRDLATWVYTTLRYRQNPFC [Peptide 26, gO (TR) a.a; 326-345, C-terminal biotin; also ova-conjugated for immunization] | able to induce gO-specific NAbs | binding higher quantities of IgG compared with other peptides | 45 | – |
| TTTPYSPYTTSTALNVTTNA [Peptide 22, gO (TR) a.a; 274-293, C-terminal biotin; negative control in depletion] | – | did not bind substantial IgG | – | retained complete neutralizing capacity |
